Measured values reported in patent US20260115214A1, “APPLICATION OF INHIBITORS OF GLYCOLYTIC PATHWAY IN PREPARATION OF DRUGS FOR PREVENTING AND TREATING PORCINE REPRODUCTIVE AND RESPIRATORY SYNDROME VIRUS (PRRSV) INFECTION” (NANJING AGRICULTURAL UNIVERSITY, priority 2020, published 2026).

Assays:
PRRSV = PRRSV replication in infected Marc-145 cells treated with glycolysis inhibitors (Western blotting, TCID50, RT-PCR); assay type: cell-based, porcine reproductive and respiratory syndrome virus; details: for virus titer (TCID50) in cell culture medium / PRRSV ORF7 mRNA level in the cells (RT-PCR): 36 h, 2-DG 0-15 μM; for virus titer (TCID50) in cell culture medium / PRRSV ORF7 mRNA level in the cells (RT-PCR) / PRRSV N protein expression level (Western blotting): SO 0, 25, 50 mM; for PRRSV ORF7 mRNA level in the cells (RT-PCR) / PRRSV N protein expression level (Western blotting): Gal 10, 50, 100 μM; for PRRSV N protein expression level (Western blotting): 36 h after infection
Protocol: Highly pathogenic PRRSV strains BB0907 and Marc-145 cells are maintained in the laboratory and are conventional strains and cells disclosed in the prior art.
Marc-145 cells were cultured in a 96-well plate. When the cell confluence reached 70%, a nutrient solution was pipetted, and the cell surface was washed 3 times with PBS. Ten-fold serial dilutions of PRRSV were added to the cells and incubated at 37° C. for 1 h. A medium was replaced with fresh 2% FBS-DMEM. Virus titers were determined 5 days post inoculation (dpi) by endpoint dilution assay. 50% tissue culture infectious dose (TCID50) was calculated by a Reed-Muench method.
Cellular RNA was extracted following operating instructions of an OMEGA RNA virus extraction kit. After reverse transcription into cDNA, […].
By a 2-ΔΔCt method, the relative content of mRNA in each gene in the samples was calculated by a CT value.
(§1) To explore the effect of glycolysis in cells on PRRSV replication, an inhibitor of glycolytic pathway, 2-DG, was used to inhibit glycolysis in cells. […] After the Marc-145 cells were infected with PRRSV (0.01 MOI), the Marc-145 cells were treated with 0 μM, 2.5 μM, 5 μM, 10 μM and 15 μM of 2-DG respectively. After 36 hours, the inhibition efficiency of the 2-DG on PRRSV on the Marc-145 cells was detected by Western blotting.
To further verify the effect of glycolysis on PRRSV, PRRSV-infected Marc-145 cells were treated with a key enzyme in the last step of glycolysis, that is, an inhibitor of lactate dehydrogenase, sodium oxamate (SO). A control group was set up to detect whether there was a difference in the level of virus replication. […] After the Marc-145 cells were infected with PRRSV (0.01 MOI), the Marc-145 cells were treated with 0 mM, 25 mM and 50 mM of SO. 36 h after infection, the PRRSV N protein expression level, virus titer and PRRSV ORF7 mRNA level were detected by Western blotting, TCID50 and RT-PCR respectively.
PRRSV-infected Marc-145 cells were treated with an inhibitor of lactate dehydrogenase (Galloflavin, Gal), and a control group was set up to detect differences in viral replication levels. […] After Marc-145 cells were infected with PRRSV (0.01 MOI), the Marc-145 cells were treated with 10 μM, 50 μM and 100 μM of Gal. […] In addition, A PRRSV ORF7 mRNA level and the virus titer were detected by TCID50 and RT-PCR.

PRRSV BB0907 strain = experiment: Treatment of PRRSV-infected piglets by oral administration; assay type: in vivo; details: for microscopic lung lesion scores: day 14, compared with challenge control group, P<0.01; for gross lung lesion scores: day 14, compared with positive control group, sodium oxamate P<0.01, Galloflavin P<0.001; for PRRSV viral load in the lungs / histopathological changes of lungs / gross lung lesions (observation) / clinical symptoms (observation) / clinical symptoms compared with the positive control group / weight growth rate / virus content in the serum (PRRSV genome copy number, qRT-PCR): oral daily, sodium oxamate 7 mg or Galloflavin 10 μg; for PRRSV viral load in the lungs: 14 dpi, P<0.0001; for histopathological changes of lungs: day 14; for gross lung lesions (observation): day 14, compared with the positive control group; for clinical symptoms (observation): days 0-14; for clinical symptoms compared with the positive control group: days 0-14, P<0.001; for weight growth rate: days 0-14, P>0.05 vs negative control; for virus content in the serum (PRRSV genome copy number, qRT-PCR): serum at 1, 4, 7, 10, 14 dpi
Marc-145 cells = assay type: cell-based; details: monkey, 48 h
Protocol: Marc-145 cells were cultured in 10% FBS-DMEM containing different concentrations of sodium oxamate (1-250 mM), Galloflavin (0-2.5 mM) and 2-deoxy-D-glucose (0-20 μM), and incubated at 37° C. for 48 h. Cell viability was detected with an enhanced CCK8 kit. DMSO was used as a negative control.
as §1
To further verify the effect of glycolysis on PRRSV, PRRSV-infected Marc-145 cells were treated with a key enzyme in the last step of glycolysis, that is, an inhibitor of lactate dehydrogenase, sodium oxamate (SO). […] 36 h after infection, the PRRSV N protein expression level, virus titer and PRRSV ORF7 mRNA level were detected by Western blotting, TCID50 and RT-PCR respectively.
PRRSV-infected Marc-145 cells were treated with an inhibitor of lactate dehydrogenase (Galloflavin, Gal), and a control group was set up to detect differences in viral replication levels. […] In addition, A PRRSV ORF7 mRNA level and the virus titer were detected by TCID50 and RT-PCR.

Structure (SMILES)	level of PRRSV replication (figure legend) (PRRSV)	virus titer (TCID50) in cell culture medium (PRRSV; PRRSV 0.01 MOI)	PRRSV ORF7 mRNA level in the cells (RT-PCR) (PRRSV; PRRSV 0.01 MOI)	PRRSV N protein expression level (Western blotting) (PRRSV; PRRSV 0.01 MOI)	microscopic lung lesion scores (PRRSV BB0907 strain)	gross lung lesion scores (PRRSV BB0907 strain)	PRRSV viral load in the lungs (PRRSV BB0907 strain)	histopathological changes of lungs (PRRSV BB0907 strain)	gross lung lesions (observation) (PRRSV BB0907 strain)	clinical symptoms (observation) (PRRSV BB0907 strain)	clinical symptoms compared with the positive control group (PRRSV BB0907 strain)	weight growth rate (PRRSV BB0907 strain)	virus content in the serum (PRRSV genome copy number, qRT-PCR) (PRRSV BB0907 strain)	concentration at which the substance starts to be toxic to the cells (CCK8) (Marc-145 cells) [µM]	inhibition at 5 µM (PRRSV; Porcine reproductive and respiratory syndrome virus, MARC145, concentration of 5 μM, PRRSV 0.01 MOI, after 36 hours, read-out: inhibition efficiency against PRRSV (Western blotting)) [%]
NC(=O)C(=O)[O-].[Na+] [sodium oxamate]	reduces the level of PRRSV replication	reduce PRRSV replication in the cells in a dose-dependent manner	reduce PRRSV replication in the cells in a dose-dependent manner	reduce PRRSV replication in the cells in a dose-dependent manner	significantly lower than those of the challenge control group	significantly lower	significantly lower than that in the positive control group	mild thickened alveolar septa and inflammatory cell infiltration	significantly minor lung lesions	no obvious clinical symptoms	significantly relieved clinical symptoms	approximate to that of the negative control group	significantly lower than that in the positive control group	100000	–
O=c1oc2c(cc1O)oc(=O)c1cc(O)c(O)c(O)c12 [Galloflavin]	reduces the level of PRRSV replication	–	decrease the mRNA level of PRRSV in a dose-dependent manner	decrease PRRSV replication in the cells in a dose-dependent manner	significantly lower than those of the challenge control group	more significantly lower	significantly lower than that in the positive control group	significantly alleviated, similar to those in the negative control group	significantly minor lung lesions	no obvious clinical symptoms	significantly relieved clinical symptoms	approximate to that of the negative control group	significantly lower than that in the positive control group	–	–
O=CC[C@@H](O)[C@H](O)[C@H](O)CO [2-DG, 2-deoxy-D-glucose]	reduces the level of PRRSV replication	decreased in a dose-dependent manner	decreased in a dose-dependent manner	–	–	–	–	–	–	–	–	–	–	–	~50
